Results on 3 compounds are retold here after US12139477B2, “Compounds, salts thereof and methods for treatment of diseases” (ACADIA PHARMACEUTICALS INC., priority 2017, dated 2024).

SMILES strings stand for the structures.

Common to all, as to format: cell-based
In series [1] the target is T1, hERG channel (Homo sapiens, UniProt Q12809).
T1 construct: host or cells: CHO cells, stably transfected
Description: hERG assay, whole cell recordings in CHO cells (AVIVA). As to conditions: CHO cells stably expressing hERG, pH 7.4. An outline of the steps: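 Whole-cell voltage clamp of CHO cells stably expressing hERG, held at −80 mV; steps to +20 mV for 5 s, then −50 mV for 5 s, with tail current measured against a −50 mV baseline, every 12 s. Compounds applied in 4 additions until steady state (max 12 min), vs 0.1% DMSO vehicle baseline.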

Series [2] deals with T2, Nav1.5 sodium ion channel (alpha subunit) (Homo sapiens, UniProt Q14524).
T2 construct: host or cells: HEK293 cells
Description: NaV1.5 whole cell recordings, HEK293 (AVIVA; for ACP-201, ACP-203 and ACP-204). The conditions noted are these: manual patch clamp; step to 0 mV; AVIVA method for ACP-201, ACP-203, ACP-204; read-out: NaV 1.5 IC50. The method, then: NaV1.5 methods (for ACP-201, ACP-203 and ACP-204): These experiments were carried out at AVIVA Biosciences Corporation, 6330 Nancy Ridge Drive, Suite 103, San Diego, CA 92121.
Cells: HEK293 cells transfected with Nav1.5 sodium ion channel (alpha subunit) were selected for this study. Cells were cultured in DMEM/F12 containing 10% FBS, 500 μg/mL G418 and 1% penicillin/streptomycin. Trypsin (0.05%) was utilized for cell harvesting.
External Solution: 90 mM NaCl; 50 mM TEA; 10 mM HEPES; 10 mM glucose; 4 mM KCl; 2 mM CaCl2); 305-315 mOsm; pH 7.4 (adjusted with 5M NaOH).
Internal Solution: 140 mM CsF; 10 mM NaCl; 1 mM MgCl2; 10 mM HEPES; 5 mM EGTA; 295-305 mOsm; pH 7.4 (adjusted with 1M NaOH).
Electrophysiology: All whole cell recordings were performed using PX 7000A (Axon Instruments) with AVIVA's […] technology. To achieve stable recordings, cells were voltage clamped at a holding potential 20 mV more negative than steady state half inactivation potential (Vh=V1/2−20 mV). V1/2 was determined by a pre-step from −130 mV to −40 MV for 1000 ms followed by a −10 mV step. V1/2 was determined independently for each cell to correct for both electrode potential and liquid junction potential offsets.
Test Article Handling and Dilutions: All test articles were prepared from 10 mM DMSO stock solutions. Solutions were mixed by sonication for 20 min, followed by vigorous vortexing. Prior to testing, compounds were diluted to test concentrations in glass vials using External Solution. Dilutions were prepared no longer than 20 min prior to use.
Electrophysiology Procedures: After achieving whole cell configuration, cells were monitored for 90 s to assess stability and then washed with External Solution for 66 s. for each cell achieving whole-cell access, an IV curve and steady state inactivation curve was measured. […] Whole cell parameters were monitored throughout the recoding procedure and corrected for any possible access resistance or input capacitance change (whole-cell compensation). […]

The target of series [3] is 5HT2A (Homo sapiens, UniProt P28223). In words: Receptor Selection and Amplification (R-SAT) functional assay. Further details: expressed in transfected cells; host or cells: NIH3T3 cells, pSI mammalian expression vector. As to conditions: NIH3T3 cells; Ki from IC50 by Cheng and Prussoff; read-out: 5-HT2a (pKi) (R-SAT) (converted). From the text:
Receptor Selection and Amplification (R-SAT) Assays. […] The IC50 determined in the RSAT assay was converted into a Ki value using the method of Cheng and Prussoff, Biochem Pharmacol., 1973 Dec. 1; 22(23):3099-108. pKi is the negative of the log(Ki).

Sequence of 5HT2A (P28223 whole entry): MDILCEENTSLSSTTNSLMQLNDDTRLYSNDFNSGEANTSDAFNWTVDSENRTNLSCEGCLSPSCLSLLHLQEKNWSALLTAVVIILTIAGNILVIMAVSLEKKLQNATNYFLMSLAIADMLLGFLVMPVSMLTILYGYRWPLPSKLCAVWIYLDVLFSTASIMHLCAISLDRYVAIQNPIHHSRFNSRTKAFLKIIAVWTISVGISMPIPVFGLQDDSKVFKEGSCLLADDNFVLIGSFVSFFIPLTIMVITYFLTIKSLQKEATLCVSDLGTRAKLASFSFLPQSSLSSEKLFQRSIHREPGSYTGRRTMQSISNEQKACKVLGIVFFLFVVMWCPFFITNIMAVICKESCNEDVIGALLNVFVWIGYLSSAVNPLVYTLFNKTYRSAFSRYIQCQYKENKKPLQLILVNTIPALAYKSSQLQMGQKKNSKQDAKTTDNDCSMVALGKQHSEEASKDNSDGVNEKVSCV
T1 sequence (Q12809 whole entry): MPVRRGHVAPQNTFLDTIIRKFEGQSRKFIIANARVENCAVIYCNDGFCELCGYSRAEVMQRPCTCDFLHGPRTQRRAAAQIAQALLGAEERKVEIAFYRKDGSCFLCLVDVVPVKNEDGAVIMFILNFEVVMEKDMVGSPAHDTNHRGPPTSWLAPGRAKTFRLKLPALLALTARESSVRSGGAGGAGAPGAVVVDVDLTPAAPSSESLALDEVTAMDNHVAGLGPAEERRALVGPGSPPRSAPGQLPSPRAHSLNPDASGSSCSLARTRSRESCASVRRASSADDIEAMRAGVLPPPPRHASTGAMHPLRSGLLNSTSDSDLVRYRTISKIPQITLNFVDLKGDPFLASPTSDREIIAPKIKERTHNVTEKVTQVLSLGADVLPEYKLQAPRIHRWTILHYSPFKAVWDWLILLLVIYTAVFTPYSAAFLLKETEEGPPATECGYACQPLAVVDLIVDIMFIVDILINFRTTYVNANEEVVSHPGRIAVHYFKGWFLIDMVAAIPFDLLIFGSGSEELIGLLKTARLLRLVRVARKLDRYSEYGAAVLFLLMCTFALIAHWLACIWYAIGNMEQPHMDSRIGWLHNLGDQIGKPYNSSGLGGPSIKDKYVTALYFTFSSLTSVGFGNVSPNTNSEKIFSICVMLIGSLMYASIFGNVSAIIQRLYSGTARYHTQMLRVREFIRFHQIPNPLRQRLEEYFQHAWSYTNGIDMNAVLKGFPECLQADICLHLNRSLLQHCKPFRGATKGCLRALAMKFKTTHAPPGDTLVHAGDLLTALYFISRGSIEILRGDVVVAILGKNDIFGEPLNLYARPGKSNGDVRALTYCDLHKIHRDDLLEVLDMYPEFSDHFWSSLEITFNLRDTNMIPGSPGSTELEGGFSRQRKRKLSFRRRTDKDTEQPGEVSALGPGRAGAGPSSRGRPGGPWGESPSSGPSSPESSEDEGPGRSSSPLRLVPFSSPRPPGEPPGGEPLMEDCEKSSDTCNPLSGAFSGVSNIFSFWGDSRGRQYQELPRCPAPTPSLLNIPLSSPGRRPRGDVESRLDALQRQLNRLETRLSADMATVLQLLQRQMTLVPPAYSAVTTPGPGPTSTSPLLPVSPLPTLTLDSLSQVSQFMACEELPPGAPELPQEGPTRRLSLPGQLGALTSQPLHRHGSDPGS
T2 sequence (Q14524 whole entry): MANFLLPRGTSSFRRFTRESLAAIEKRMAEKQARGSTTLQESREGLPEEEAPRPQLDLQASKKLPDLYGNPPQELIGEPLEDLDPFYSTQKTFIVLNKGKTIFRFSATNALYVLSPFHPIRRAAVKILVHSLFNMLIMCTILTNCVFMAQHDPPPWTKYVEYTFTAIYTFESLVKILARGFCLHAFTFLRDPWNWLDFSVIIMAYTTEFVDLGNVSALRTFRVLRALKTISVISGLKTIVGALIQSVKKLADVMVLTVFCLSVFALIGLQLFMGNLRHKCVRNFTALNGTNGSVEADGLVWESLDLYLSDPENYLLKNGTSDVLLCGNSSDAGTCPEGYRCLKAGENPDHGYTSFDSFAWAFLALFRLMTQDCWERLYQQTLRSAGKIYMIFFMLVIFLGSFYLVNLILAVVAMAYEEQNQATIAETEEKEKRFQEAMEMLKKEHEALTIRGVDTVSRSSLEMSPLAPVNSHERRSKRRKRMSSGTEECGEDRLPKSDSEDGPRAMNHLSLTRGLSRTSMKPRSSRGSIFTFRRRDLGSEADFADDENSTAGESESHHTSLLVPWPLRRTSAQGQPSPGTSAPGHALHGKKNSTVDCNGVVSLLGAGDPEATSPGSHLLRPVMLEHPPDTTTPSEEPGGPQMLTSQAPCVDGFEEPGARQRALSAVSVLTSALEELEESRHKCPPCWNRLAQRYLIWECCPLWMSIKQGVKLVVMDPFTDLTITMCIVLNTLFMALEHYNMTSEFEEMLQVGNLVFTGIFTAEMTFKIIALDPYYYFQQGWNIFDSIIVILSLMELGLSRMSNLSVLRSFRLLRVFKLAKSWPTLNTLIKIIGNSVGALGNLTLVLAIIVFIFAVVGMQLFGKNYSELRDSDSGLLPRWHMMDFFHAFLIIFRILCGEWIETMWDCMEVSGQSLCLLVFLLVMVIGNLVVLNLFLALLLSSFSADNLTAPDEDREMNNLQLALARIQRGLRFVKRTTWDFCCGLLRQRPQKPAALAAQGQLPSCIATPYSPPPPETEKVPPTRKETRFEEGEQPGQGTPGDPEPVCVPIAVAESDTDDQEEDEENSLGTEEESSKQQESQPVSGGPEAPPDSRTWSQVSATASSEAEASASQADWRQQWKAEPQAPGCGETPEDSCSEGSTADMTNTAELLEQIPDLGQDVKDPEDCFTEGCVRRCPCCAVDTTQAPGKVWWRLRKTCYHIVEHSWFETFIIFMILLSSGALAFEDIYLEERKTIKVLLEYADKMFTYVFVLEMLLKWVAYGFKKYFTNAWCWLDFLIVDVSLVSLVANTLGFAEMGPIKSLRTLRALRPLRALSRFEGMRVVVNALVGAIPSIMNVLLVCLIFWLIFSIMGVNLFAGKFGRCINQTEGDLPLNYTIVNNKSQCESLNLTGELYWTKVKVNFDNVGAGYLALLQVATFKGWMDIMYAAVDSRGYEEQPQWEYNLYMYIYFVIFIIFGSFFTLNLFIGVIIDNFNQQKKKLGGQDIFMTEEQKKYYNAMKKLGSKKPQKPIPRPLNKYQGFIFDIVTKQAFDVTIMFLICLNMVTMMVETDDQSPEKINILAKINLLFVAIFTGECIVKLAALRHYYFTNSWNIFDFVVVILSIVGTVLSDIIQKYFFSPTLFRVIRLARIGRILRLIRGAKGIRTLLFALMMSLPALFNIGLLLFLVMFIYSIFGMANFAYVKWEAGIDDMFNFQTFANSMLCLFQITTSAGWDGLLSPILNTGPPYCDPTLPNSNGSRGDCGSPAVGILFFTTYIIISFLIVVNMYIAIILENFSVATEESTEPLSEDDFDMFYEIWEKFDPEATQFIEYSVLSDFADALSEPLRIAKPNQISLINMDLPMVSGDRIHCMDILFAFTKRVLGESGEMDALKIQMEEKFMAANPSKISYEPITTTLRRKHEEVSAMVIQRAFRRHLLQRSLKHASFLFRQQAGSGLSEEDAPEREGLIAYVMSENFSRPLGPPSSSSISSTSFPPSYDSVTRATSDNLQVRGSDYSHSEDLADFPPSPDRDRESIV

On to `CN1CCC(N(Cc2ccc(F)cc2F)C(=O)NCc2ccc(OC3CC3)cc2)CC1` [Example 17, 3-[(4-cyclopropoxyphenyl)methyl]-1-[(2,4-difluorophenyl)methyl]-1-(1-methylpiperidin-4-yl)urea], for which 1 µM produced 32% inhibition in series [1]. Also, in series [2], the IC50 was more than 10000 nM. For the same compound, the Ki in series [3] was 0.398 nM.

`CC(C)COc1ccc(CNC(=O)N(Cc2ccc(F)cc2F)C2CCN(C)CC2)cc1` [Example 3, 1-[(2,4-difluorophenyl)methyl]-1-(1-methylpiperidin-4-yl)-3-{[4-(2-methylpropoxy)phenyl]methyl}urea]: 1 µM produced 33% inhibition in series [1]. Also, the IC50 in series [2] came to 4200 nM. The Ki in series [3] is 1.26 nM.

In the case of `CC(C)Oc1ccc(CNC(=O)N(Cc2ccc(F)cc2F)C2CCN(C)CC2)cc1` [Example 5, 1-[(2,4-difluorophenyl)methyl]-1-(1-methylpiperidin-4-yl)-3-{[4-(propan-2-yloxy)phenyl]methyl}urea], in series [1], the inhibition at 1 µM is 29%. In addition, the IC50 in series [2] is more than 10000 nM. Besides, the Ki in series [3] was 1 nM.
